Source: article PMC8508963 (2021)

What was measured:
Experiment in all cases: fluorescence titration and Job plot
[1] = tested on: ds12 (DNA, duplex) CGCGAATTCGCG; conditions: 100 mM K+ (KCl) plus 20 mM potassium phosphate; pH 7, 20 °C, Job total 2 µM; lowest fluorescence enhancement
[2] = tested on: m-tel24 (DNA, G4) TTGGGTTAGGGTTAGGGTTAGGGA; conditions: 100 mM K+ (KCl) plus 20 mM potassium phosphate; pH 7, 20 °C, Job total 2 µM; highest fluorescence; groove binding suggested by induced CD
[3] = tested on: M2 (DNA, G4) TAGGGACGGGCGGGCAGGGT; conditions: 100 mM K+ (KCl) plus 20 mM potassium phosphate; pH 7, 20 °C, Job total 2 µM; medium fluorescence enhancement

Measured: binding

CN(C)CCCNC(=O)c1ccc2[nH]c3c([nH]c2c1)c1c(=O)n(CCCN(C)C)c(=O)c2ccc4c(=O)n(CCCN(C)C)c(=O)c3c4c21
yes: all assays above
